Data taken from patent US9340590B2 (priority 2011, dated 2016).
Read-outs that look alike come from different tables or passages of the source. Positions of bridges follow the written chain, without caps; N, C: chain ends. Residues, ends and D or L forms follow the SMILES beside them.

Legend:
hNav1.3 = hNav1.3 (Homo sapiens, UniProt Q9NY46); test: cell-based; settings: IonWorks Quattro, read-out: IWQ Use Nav1.3
hNav1.5 = hNav1.5 (Homo sapiens, UniProt Q14524); test: cell-based
[1] = IonWorks Quattro, Use, read-out: IWQ Use Nav1.5
[2] = clamped to −110 mV, depolarized to −10 mV, 5 min after compound, n=2

Sequence of hNav1.5 (Q14524 whole entry, looked up): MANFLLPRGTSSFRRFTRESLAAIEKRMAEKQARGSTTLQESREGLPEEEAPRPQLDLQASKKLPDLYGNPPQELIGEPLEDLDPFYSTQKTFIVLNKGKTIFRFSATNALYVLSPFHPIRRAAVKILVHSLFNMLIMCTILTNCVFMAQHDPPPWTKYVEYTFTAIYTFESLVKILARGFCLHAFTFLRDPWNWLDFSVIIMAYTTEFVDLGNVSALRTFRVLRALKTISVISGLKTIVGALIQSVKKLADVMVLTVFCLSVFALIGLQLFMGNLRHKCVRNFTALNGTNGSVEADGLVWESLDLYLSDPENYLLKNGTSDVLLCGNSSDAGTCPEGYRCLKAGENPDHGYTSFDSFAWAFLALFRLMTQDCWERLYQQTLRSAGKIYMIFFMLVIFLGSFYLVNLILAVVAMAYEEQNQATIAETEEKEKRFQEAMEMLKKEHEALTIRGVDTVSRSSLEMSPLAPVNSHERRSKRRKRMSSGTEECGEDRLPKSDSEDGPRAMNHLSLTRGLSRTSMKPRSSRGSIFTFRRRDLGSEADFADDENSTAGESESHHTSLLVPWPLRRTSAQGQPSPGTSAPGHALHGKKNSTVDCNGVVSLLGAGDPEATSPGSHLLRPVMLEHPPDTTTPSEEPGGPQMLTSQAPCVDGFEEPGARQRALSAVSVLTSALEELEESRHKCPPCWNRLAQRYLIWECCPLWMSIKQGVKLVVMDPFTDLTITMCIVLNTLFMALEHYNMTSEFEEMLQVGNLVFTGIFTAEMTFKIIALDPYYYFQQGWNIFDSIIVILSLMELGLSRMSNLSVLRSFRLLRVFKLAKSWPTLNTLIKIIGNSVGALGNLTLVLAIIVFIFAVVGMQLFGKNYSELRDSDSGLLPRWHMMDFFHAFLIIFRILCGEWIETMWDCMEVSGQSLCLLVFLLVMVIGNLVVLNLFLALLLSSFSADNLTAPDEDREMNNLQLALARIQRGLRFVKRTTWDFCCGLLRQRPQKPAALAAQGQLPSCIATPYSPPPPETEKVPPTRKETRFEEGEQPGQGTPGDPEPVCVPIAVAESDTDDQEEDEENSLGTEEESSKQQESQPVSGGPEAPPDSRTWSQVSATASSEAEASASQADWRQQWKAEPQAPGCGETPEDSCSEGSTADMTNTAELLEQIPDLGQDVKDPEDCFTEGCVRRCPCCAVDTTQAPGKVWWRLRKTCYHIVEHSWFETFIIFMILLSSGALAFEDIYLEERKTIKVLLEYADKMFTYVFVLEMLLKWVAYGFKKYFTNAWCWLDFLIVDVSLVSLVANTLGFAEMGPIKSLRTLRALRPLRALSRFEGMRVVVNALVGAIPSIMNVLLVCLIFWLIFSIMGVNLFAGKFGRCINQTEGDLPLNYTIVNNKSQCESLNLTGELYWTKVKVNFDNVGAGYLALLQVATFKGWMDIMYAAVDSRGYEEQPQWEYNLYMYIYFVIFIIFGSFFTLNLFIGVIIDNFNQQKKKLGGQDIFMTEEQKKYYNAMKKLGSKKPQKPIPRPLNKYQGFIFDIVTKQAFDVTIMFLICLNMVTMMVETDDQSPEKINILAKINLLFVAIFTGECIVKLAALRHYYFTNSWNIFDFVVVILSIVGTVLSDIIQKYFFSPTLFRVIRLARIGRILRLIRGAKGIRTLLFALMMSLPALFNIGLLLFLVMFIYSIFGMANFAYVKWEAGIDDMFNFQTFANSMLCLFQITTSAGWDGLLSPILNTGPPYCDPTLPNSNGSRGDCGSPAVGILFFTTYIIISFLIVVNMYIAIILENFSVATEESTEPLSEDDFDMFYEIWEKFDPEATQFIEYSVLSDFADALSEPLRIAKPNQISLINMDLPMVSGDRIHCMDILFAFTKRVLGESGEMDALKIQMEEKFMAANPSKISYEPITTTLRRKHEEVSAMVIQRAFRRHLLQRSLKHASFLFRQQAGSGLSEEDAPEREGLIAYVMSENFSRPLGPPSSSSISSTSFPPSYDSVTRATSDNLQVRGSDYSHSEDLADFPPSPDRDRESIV
Sequence of hNav1.3 (Q9NY46 whole entry, looked up): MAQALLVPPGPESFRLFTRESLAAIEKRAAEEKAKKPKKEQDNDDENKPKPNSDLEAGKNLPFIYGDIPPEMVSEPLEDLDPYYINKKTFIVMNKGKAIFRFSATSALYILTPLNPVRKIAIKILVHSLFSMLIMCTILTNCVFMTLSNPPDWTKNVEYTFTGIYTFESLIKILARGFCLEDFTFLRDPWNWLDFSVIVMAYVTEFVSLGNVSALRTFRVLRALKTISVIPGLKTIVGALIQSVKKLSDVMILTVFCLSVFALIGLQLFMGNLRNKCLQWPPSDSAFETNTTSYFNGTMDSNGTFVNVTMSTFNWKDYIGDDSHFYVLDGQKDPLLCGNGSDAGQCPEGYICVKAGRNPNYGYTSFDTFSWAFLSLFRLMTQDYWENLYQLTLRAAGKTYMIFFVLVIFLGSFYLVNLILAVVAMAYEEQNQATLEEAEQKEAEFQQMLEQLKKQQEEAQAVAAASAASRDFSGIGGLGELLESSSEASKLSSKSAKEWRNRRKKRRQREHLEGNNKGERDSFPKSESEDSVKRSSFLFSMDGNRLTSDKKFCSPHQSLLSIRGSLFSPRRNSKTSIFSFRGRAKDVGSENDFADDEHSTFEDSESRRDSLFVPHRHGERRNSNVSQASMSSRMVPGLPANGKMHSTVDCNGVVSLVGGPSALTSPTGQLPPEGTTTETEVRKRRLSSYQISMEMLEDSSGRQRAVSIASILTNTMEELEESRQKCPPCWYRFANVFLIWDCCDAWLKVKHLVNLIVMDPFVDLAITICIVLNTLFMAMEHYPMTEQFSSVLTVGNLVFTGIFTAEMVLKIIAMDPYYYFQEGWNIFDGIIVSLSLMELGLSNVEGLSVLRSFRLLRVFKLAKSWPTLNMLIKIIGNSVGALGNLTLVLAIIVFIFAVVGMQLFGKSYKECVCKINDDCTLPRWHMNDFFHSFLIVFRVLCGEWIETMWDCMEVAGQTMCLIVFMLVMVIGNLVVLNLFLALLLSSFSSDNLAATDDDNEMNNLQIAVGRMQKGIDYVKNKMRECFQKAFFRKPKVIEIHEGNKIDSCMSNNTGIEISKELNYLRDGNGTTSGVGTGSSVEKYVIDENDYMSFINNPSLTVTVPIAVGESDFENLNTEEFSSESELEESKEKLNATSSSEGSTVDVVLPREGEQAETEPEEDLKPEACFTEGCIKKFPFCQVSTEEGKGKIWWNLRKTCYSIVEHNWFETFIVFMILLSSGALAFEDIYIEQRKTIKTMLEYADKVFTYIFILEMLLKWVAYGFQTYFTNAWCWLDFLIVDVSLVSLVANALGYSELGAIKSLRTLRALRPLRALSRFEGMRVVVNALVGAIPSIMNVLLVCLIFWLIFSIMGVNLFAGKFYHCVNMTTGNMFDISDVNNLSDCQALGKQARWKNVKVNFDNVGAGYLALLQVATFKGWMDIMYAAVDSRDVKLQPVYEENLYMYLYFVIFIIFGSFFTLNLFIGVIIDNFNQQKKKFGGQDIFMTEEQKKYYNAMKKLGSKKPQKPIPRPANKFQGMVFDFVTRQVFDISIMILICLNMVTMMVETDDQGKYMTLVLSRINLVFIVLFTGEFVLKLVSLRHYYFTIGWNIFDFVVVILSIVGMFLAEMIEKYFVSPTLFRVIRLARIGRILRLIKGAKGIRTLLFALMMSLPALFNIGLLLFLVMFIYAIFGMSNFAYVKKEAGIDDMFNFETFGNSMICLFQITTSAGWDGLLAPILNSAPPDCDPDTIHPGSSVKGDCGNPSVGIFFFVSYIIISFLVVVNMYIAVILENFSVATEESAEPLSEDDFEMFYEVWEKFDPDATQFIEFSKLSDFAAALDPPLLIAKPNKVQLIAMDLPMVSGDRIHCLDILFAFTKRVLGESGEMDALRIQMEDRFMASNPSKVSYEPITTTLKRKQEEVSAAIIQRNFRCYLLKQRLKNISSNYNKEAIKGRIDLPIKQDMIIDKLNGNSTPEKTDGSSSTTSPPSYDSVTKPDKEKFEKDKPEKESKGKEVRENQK

| SMILES | IC50 (hNav1.3; Use) [nM] | IC50 (hNav1.5; [1]) [nM] | also measured |
| --- | --- | --- | --- |
| CC[C@H](C)[C@@H]1NC(=O)[C@@H]2CSSC[C@@H]3NC(=O)[C@H](C(C)C)NC(=O)[C@H](CC(C)C)NC(=O)[C@H](CC(N)=O)NC(=O)[C@@H]4CCCN4C(=O)[C@H](CCCNC(=N)N)NC(=O)[C@H](CSSC[C@H](NC(=O)[C@@H](N)CC(=O)O)C(=O)N[C@@H](CC(C)C)C(=O)NCC(=O)N[C@@H](Cc4ccccc4)C(=O)N[C@@H](CCSC)C(=O)N[C@@H](CCCNC(=N)N)C(=O)N[C@@H](CCCCN)C(=O)N2)NC(=O)[C@H](CSSC[C@@H](C(=O)N[C@@H](CCCCN)C(=O)N[C@@H](Cc2ccc(O)cc2)C(=O)N[C@H](C(=O)N[C@@H](Cc2ccccc2)C(N)=O)C(C)C)NC(=O)[C@H](Cc2c[nH]c4ccccc24)NC(=O)[C@H](CCCCN)NC(=O)[C@H](Cc2cnc[nH]2)NC(=O)[C@H]([C@@H](C)O)NC(=O)[C@H](CCCNC(=N)N)NC(=O)[C@H](C)NC3=O)NC(=O)[C@H](CCCCN)NC(=O)[C@H](CC(=O)O)NC(=O)[C@H](CC(N)=O)NC(=O)[C@H](CC(=O)O)NC(=O)[C@@H]2CCCN2C1=O [compound 142] (H-DCLGFMRKCIPDNDKCCRPNLVCARTHKWCKYVF-NH2; disulfide 2-17, 9-23, 16-30) | 250 | 8200 |  |
| CC[C@H](C)[C@@H]1NC(=O)[C@@H]2CSSC[C@@H]3NC(=O)[C@H](C(C)C)NC(=O)[C@H](CC(C)C)NC(=O)[C@H](CC(N)=O)NC(=O)[C@@H]4CCCN4C(=O)[C@H](CCCNC(=N)N)NC(=O)[C@H](CSSC[C@H](NC(=O)[C@@H](N)CC(=O)O)C(=O)N[C@@H](CC(C)C)C(=O)NCC(=O)N[C@@H](Cc4ccccc4)C(=O)N[C@@H](CCSC)C(=O)N[C@@H](CCCNC(=N)N)C(=O)N[C@@H](CCCCN)C(=O)N2)NC(=O)[C@H](CSSC[C@@H](C(=O)N[C@@H](CCCCN)C(=O)N[C@@H](Cc2ccc(O)cc2)C(=O)N[C@H](C(=O)N[C@@H](Cc2ccccc2)C(=O)O)C(C)C)NC(=O)[C@H](Cc2c[nH]c4ccccc24)NC(=O)[C@H](CCCCN)NC(=O)[C@H](Cc2cnc[nH]2)NC(=O)[C@H]([C@@H](C)O)NC(=O)[C@H](CCCNC(=N)N)NC(=O)[C@H](CO)NC3=O)NC(=O)[C@H](CCCCN)NC(=O)[C@H](CC(=O)O)NC(=O)[C@H](CC(N)=O)NC(=O)[C@H](CC(=O)O)NC(=O)[C@@H]2CCCN2C1=O [compound 107] |  |  | IC50 (hNav1.3; use-dependent, […]): 540 nM; IC50 (hNav1.5; IonWorks Quattro, use-dependent, […], read-out: IWQ Use Nav1.5): 9440 nM |
| CC[C@H](C)[C@@H]1NC(=O)[C@@H]2CSSC[C@@H]3NC(=O)[C@H](C(C)C)NC(=O)[C@H](CC(C)C)NC(=O)[C@H](CC(N)=O)NC(=O)[C@@H]4CCCN4C(=O)[C@H](CCCNC(=N)N)NC(=O)[C@H](CSSC[C@H](NC(=O)[C@@H](N)CC(=O)O)C(=O)N[C@@H](CC(C)C)C(=O)N[C@@H](CCC(=O)O)C(=O)N[C@@H](Cc4ccccc4)C(=O)N[C@@H](CCSC)C(=O)N[C@@H](CCCNC(=N)N)C(=O)N[C@@H](CCCCN)C(=O)N2)NC(=O)[C@H](CSSC[C@@H](C(=O)N[C@@H](CCCCN)C(=O)N[C@@H](Cc2ccc(O)cc2)C(=O)N[C@H](C(=O)N[C@@H](Cc2ccccc2)C(N)=O)C(C)C)NC(=O)[C@H](Cc2c[nH]c4ccccc24)NC(=O)[C@H](CCCCN)NC(=O)[C@H](Cc2cnc[nH]2)NC(=O)[C@H]([C@@H](C)O)NC(=O)[C@H](CCCNC(=N)N)NC(=O)[C@H](CO)NC3=O)NC(=O)[C@H](CCCCN)NC(=O)[C@H](CC(=O)O)NC(=O)[C@H](CC(N)=O)NC(=O)[C@H](CC(=O)O)NC(=O)[C@@H]2CCCN2C1=O [SEQ ID NO: 24] (H-DCLEFMRKCIPDNDKCCRPNLVCSRTHKWCKYVF-NH2; disulfide 2-17, 9-23, 16-30) |  |  | IC50 (hNav1.3; [2]): 1330 nM; IC50 (hNav1.5; IWQ Use Nav1.5): 17600 nM |
| CC[C@H](C)[C@@H]1NC(=O)[C@@H]2CSSC[C@@H]3NC(=O)[C@H](C(C)C)NC(=O)[C@H](CC(C)C)NC(=O)[C@H](CC(N)=O)NC(=O)[C@@H]4CCCN4C(=O)[C@H](CCCNC(=N)N)NC(=O)[C@H](CSSC[C@H](NC(=O)[C@@H](N)CC(=O)O)C(=O)N[C@@H](CC(C)C)C(=O)NCC(=O)N[C@@H](Cc4ccccc4)C(=O)N[C@@H](CCSC)C(=O)N[C@@H](CCCNC(=N)N)C(=O)N[C@@H](CCCCN)C(=O)N2)NC(=O)[C@H](CSSC[C@@H](C(=O)N[C@@H](CCCCN)C(=O)N[C@@H](Cc2ccc(O)cc2)C(=O)N[C@@H](CCC(=O)O)C(=O)N[C@@H](Cc2ccccc2)C(N)=O)NC(=O)[C@H](Cc2c[nH]c4ccccc24)NC(=O)[C@H](CCCCN)NC(=O)[C@H](Cc2cnc[nH]2)NC(=O)[C@H]([C@@H](C)O)NC(=O)[C@H](CCCNC(=N)N)NC(=O)[C@H](CO)NC3=O)NC(=O)[C@H](CCCCN)NC(=O)[C@H](CC(=O)O)NC(=O)[C@H](CC(N)=O)NC(=O)[C@H](CC(=O)O)NC(=O)[C@@H]2CCCN2C1=O [SEQ ID NO: 33, [Glu33]GpTx-1] (H-DCLGFMRKCIPDNDKCCRPNLVCSRTHKWCKYEF-NH2; disulfide 2-17, 9-23, 16-30) |  |  | IC50 (hNav1.3; Table 26, use, […]): 390 nM; IC50 (hNav1.5; Table 26, IonWorks Quattro, use, […], read-out: IWQ Use Nav1.5): 11500 nM |
| CSCC[C@@H]1NC(=O)[C@H](Cc2ccccc2)NC(=O)CNC(=O)[C@H](CC(C)C)NC(=O)[C@@H](NC(=O)[C@@H](N)CC(=O)O)CSSC[C@@H]2NC(=O)[C@@H]3CSSC[C@@H](C(=O)N[C@@H](CCCCN)C(=O)N[C@@H](Cc4ccc(O)cc4)C(=O)N[C@H](C(=O)N[C@@H](Cc4ccccc4)C(N)=O)C(C)C)NC(=O)[C@H](Cc4c[nH]c5ccccc45)NC(=O)[C@H](CCCCN)NC(=O)[C@H](Cc4cnc[nH]4)NC(=O)[C@H]([C@@H](C)O)NC(=O)[C@H](CCCNC(=N)N)NC(=O)[C@H](CO)NC(=O)[C@H](CSSC[C@H](NC(=O)[C@H](CCCCN)NC(=O)[C@H](CCCNC(=N)N)NC1=O)C(=O)N[C@@H](CC(=O)O)C(=O)N1CCC[C@H]1C(=O)N[C@@H](CC(=O)O)C(=O)N[C@@H](CC(N)=O)C(=O)N[C@@H](CC(=O)O)C(=O)N[C@@H](CCCCN)C(=O)N3)NC(=O)[C@H](C(C)C)NC(=O)[C@H](CC(C)C)NC(=O)[C@H](CC(N)=O)NC(=O)[C@@H]1CCCN1C(=O)[C@H](CCCNC(=N)N)NC2=O [SEQ ID NO: 119, [Asp10]GpTx-1] (H-DCLGFMRKCDPDNDKCCRPNLVCSRTHKWCKYVF-NH2; disulfide 2-17, 9-23, 16-30) | 160 | 11300 |  |
| CSCC[C@@H]1NC(=O)[C@H](Cc2ccccc2)NC(=O)CNC(=O)[C@H](CC(C)C)NC(=O)[C@@H](NC(=O)[C@@H](N)CC(=O)O)CSSC[C@@H]2NC(=O)[C@@H]3CSSC[C@@H](C(=O)N[C@@H](CCCCN)C(=O)N[C@@H](Cc4ccc(O)cc4)C(=O)N[C@H](C(=O)N[C@@H](Cc4ccccc4)C(N)=O)C(C)C)NC(=O)[C@H](Cc4c[nH]c5ccccc45)NC(=O)[C@H](CCCCN)NC(=O)[C@H](Cc4cnc[nH]4)NC(=O)[C@H]([C@@H](C)O)NC(=O)[C@H](CCCNC(=N)N)NC(=O)[C@H](CO)NC(=O)[C@H](CSSC[C@H](NC(=O)[C@H](CCCCN)NC(=O)[C@H](CCCNC(=N)N)NC1=O)C(=O)N[C@@H](C(C)C)C(=O)N1CCC[C@H]1C(=O)N[C@@H](CC(=O)O)C(=O)N[C@@H](CC(N)=O)C(=O)N[C@@H](CC(=O)O)C(=O)N[C@@H](CCCCN)C(=O)N3)NC(=O)[C@H](C(C)C)NC(=O)[C@H](CC(C)C)NC(=O)[C@H](CC(N)=O)NC(=O)[C@@H]1CCCN1C(=O)[C@H](CCCNC(=N)N)NC2=O [compound 301] (H-DCLGFMRKCVPDNDKCCRPNLVCSRTHKWCKYVF-NH2; disulfide 2-17, 9-23, 16-30) | 90 | 7880 |  |
| CC[C@H](C)[C@@H]1NC(=O)[C@@H]2CSSC[C@@H]3NC(=O)[C@H](C(C)C)NC(=O)[C@H](CC(C)C)NC(=O)[C@H](CC(N)=O)NC(=O)[C@@H]4CCCN4C(=O)[C@H](CCCNC(=N)N)NC(=O)[C@H](CSSC[C@H](NC(=O)[C@@H](N)CCC(=O)O)C(=O)N[C@@H](CC(C)C)C(=O)NCC(=O)N[C@@H](Cc4ccccc4)C(=O)N[C@@H](CCSC)C(=O)N[C@@H](CCCNC(=N)N)C(=O)N[C@@H](CCCCN)C(=O)N2)NC(=O)[C@H](CSSC[C@@H](C(=O)N[C@@H](CCCCN)C(=O)N[C@@H](Cc2ccc(O)cc2)C(=O)N[C@H](C(=O)N[C@@H](Cc2ccccc2)C(N)=O)C(C)C)NC(=O)[C@H](Cc2c[nH]c4ccccc24)NC(=O)[C@H](CCCCN)NC(=O)[C@H](Cc2cnc[nH]2)NC(=O)[C@H]([C@@H](C)O)NC(=O)[C@H](CCCNC(=N)N)NC(=O)[C@H](CO)NC3=O)NC(=O)[C@H](CCCCN)NC(=O)[C@H](CC(=O)O)NC(=O)[C@H](CC(N)=O)NC(=O)[C@H](CC(=O)O)NC(=O)[C@@H]2CCCN2C1=O [SEQ ID NO: 18] (H-ECLGFMRKCIPDNDKCCRPNLVCSRTHKWCKYVF-NH2; disulfide 2-17, 9-23, 16-30) |  |  | IC50 (hNav1.3; [2]): 150 nM; IC50 (hNav1.5; IonWorks Quattro, clamped to −110 mV, depolarized to −10 mV, 5 min after compound, n=2, read-out: IWQ Use Nav1.5): 14200 nM |
| CSCC[C@@H]1NC(=O)[C@H](Cc2ccccc2)NC(=O)CNC(=O)[C@H](CC(C)C)NC(=O)[C@@H](NC(=O)[C@@H](N)CC(=O)O)CSSC[C@@H]2NC(=O)[C@@H]3CSSC[C@@H](C(=O)N[C@@H](CCCCN)C(=O)N[C@@H](Cc4ccc(O)cc4)C(=O)N[C@H](C(=O)N[C@@H](Cc4ccccc4)C(N)=O)C(C)C)NC(=O)[C@H](Cc4c[nH]c5ccccc45)NC(=O)[C@H](CCCCN)NC(=O)[C@H](Cc4cnc[nH]4)NC(=O)[C@H]([C@@H](C)O)NC(=O)[C@H](CCCNC(=N)N)NC(=O)[C@H](CO)NC(=O)[C@H](CSSC[C@H](NC(=O)[C@H](CCCCN)NC(=O)[C@H](CCCNC(=N)N)NC1=O)C(=O)N[C@@H](CO)C(=O)N1CCC[C@H]1C(=O)N[C@@H](CC(=O)O)C(=O)N[C@@H](CC(N)=O)C(=O)N[C@@H](CC(=O)O)C(=O)N[C@@H](CCCCN)C(=O)N3)NC(=O)[C@H](C(C)C)NC(=O)[C@H](CC(C)C)NC(=O)[C@H](CC(N)=O)NC(=O)[C@@H]1CCCN1C(=O)[C@H](CCCNC(=N)N)NC2=O [compound 305] (H-DCLGFMRKCSPDNDKCCRPNLVCSRTHKWCKYVF-NH2; disulfide 2-17, 9-23, 16-30) | 90 | 4640 |  |
